From article PMC11068671, “New-generation biofilm effective antimicrobial peptides and a real-time anti-biofilm activity assay: CoMIC” (Applied Microbiology and Biotechnology, 2024)
≈ marks a conversion by molar mass, not a printed value. Non-standard residues stand in square brackets, D forms with d. Residues, ends and D or L forms follow the SMILES beside them.

Legend:
S. aureus 29213 biofilm [1] = assay: Real-time monitoring of antibiofilm activity, CoMIC method; assay type: cell-based
Protocol: (§1) 1:2 serial dilutions of ciprofloxacine (200–0 µg/mL) and sodium hypochlorite (5–0%) were prepared in Congo Red Broth media with sucrose. S. aureus 29213 were added into culture media with a final concentration of 1×10^6 Colony-forming unit/mL (CFU/mL). All cultures were performed as triplicate and incubated at 37°C overnight and fluorescence measurements were conducted by using Varioscan (Thermo, USA). The excitation/emission wavelengths were used as 525/625 nm. As a replica plate, bacteria in the same broth media, except Congo Red were cultured and analyzed with conventional Crystal Violet (CV) method. For this purpose, the bacterial cultures were removed, and wells were washed with distilled water. There was 200 µl of 1% CV dye added to each well and incubated at room temperature for 15 min in the dark. Then, CV dye was removed, and wells were washed with water. After the plate was dry, 33% acetic acid was added into wells to dissolve the dye and wells were spectrophotometrically read by Varioscan (Thermo, USA) at 590 nm (Stepanović et al. [2000]).

S. aureus 29213 biofilm [2] = assay: Antibiofilm activity, crystal violet (CV) replica plate; assay type: cell-based; conditions: CV method
Protocol: as §1

Proteinase K = Proteinase K (Parengyodontium album, UniProt P06873); assay: Protease resistance, Proteinase K treatment with HPLC analysis; assay type: in vitro ADME; conditions: analytical HPLC
Protocol: Proteinase K was used for testing the resistance of the designed peptides to proteases, since Proteinase K, a serine protease with broad-spectrum cleavage activity that preferentially cleaves aliphatic and aromatic amino acid residues, is widely used in the literature to determine the protease resistance of antimicrobial peptides (Lucio et al. [2017], Wang et al. [2019]). Afterwards, HPLC characterization was performed to understand the effect of Proteinase K on peptides.

in vitro = assay type: cell-based
Text: (§2) MTT Cell Proliferation Kit (Sigma), a colorimetric method, was used for this test to evaluate the damage that peptides can cause in eukaryotic cells and all cell lines used in this study have been deposited in a collection of the Research Laboratory of Acibadem Mehmet Ali Aydinlar University. The cell lines of 3T3 (ATCC CRL-1658) and HaCaT (ATCC PCS-200-011) were revived under appropriate culture conditions and made ready for the experiment. The final concentration of peptides reached 64 to 0.5 μg/mL. Samples were worked in triplicates for each concentration. Cells incubated without peptide-treatment under the same conditions were used as a control. Magainin II, a known natural AMP that has no cytotoxic effects, was used as a positive control (Bacalum and Radu [2015]). The results were analyzed by reading them with a 96-well plate reader at 550 and 690 nm.

HaCaT cell line = assay: in vitro; assay type: cell-based
Text: as §2

3T3 cell line = assay: in vitro; assay type: cell-based
Text: as §2

MRSA biofilm [3] = assay: Antibiofilm activity, conventional crystal violet (CV) method; assay type: cell-based, Methicillin-resistant S. aureus; conditions: for Peptide concentration inhibiting the biofilm at 100%, Crystal Violet: peptides added at the very beginning of culture; for concentration that could be enough to inhibit the biofilms completely: allowing for deviation of about 16.7 in non-specific CV binding
Protocol: There was 90 µL of 10^6 CFU/mL MRSA in MHB media with fructose transferred into wells. Then, 10 µL of 1:2 serial dilutions of the antimicrobial peptides (1280–0 µg/mL) was added in wells. So that, final concentrations of peptides were 128–0 µg/mL. Plates were incubated at 37°C overnight. After overnight incubation, they were analyzed with conventional CV method. For this purpose, the bacterial cultures were removed, and wells were washed with distilled water. 200 µl of 1% CV dye was added to each well and incubated at room temperature for 15 min in the dark. Then, CV dye was removed, and wells were washed with water. After dried the plate in an oven at 45–50°C, 33% acetic acid was added into wells to dissolve the dye and wells were spectrophotometrically read by Varioscan (Thermo, USA) at 590 nm (Stepanović et al. [2000]). Biofilm inhibiton rates (%) were calculated by the following formula (Liu et al. [2021]): (1-A590ofwellstreatedwithpeptides/[…])×100
Before this calculation, the values obtained from all wells were subtracted from the value from the empty wells (Blank).

E. coli NTCC13846 = assay type: cell-based
Text: (§3) NET1, NET2, NET3, and NET4 peptide antibiotics were used in the experiments. For the purpose of the study, both clinical isolates Methicillin-Resistant S. aureus (MRSA), Vancomycin-resistant Enterococcus (VRE), E. coli ER2566, E. coli 13846 bacteria and ATCC strains S. aureus and E. coli bacteria were used in the MIC study. All strains used in this study have been deposited in a strain collection of the Research Laboratory of Acibadem Mehmet Ali Aydinlar University. For experiment 0.5 McFarland bacterial suspension was prepared in Müeller Hinton Broth (MHB) media. In the 96-well plate, serial dilutions of peptide antibiotics starting from 512 to 0 μg/mL were made in MHB media and added 5 µl of bacterial suspensions. After incubated overnight at 37°C, results were evaluated according to turbidity (Teh et al. [2017]). Ampicillin was used as positive controls.

E. coli ATCC25922 = assay type: cell-based
Text: as §3

S. aureus ATCC29213 = assay type: cell-based
Text: as §3

S. aureus ATCC25923 = assay type: cell-based
Text: as §3

E. coli ER2566 = assay type: cell-based
Text: as §3

erythrocytes = assay type: cell-based
Protocol: Hemolytic activity assays were carried out using erythrocytes, using triton X-100 as lysis control agent. Hemolytic activities were analyzed by reading each well with a plate reader spectrophotometer device at 414 nm and the % lysis rate was calculated in Microsoft Excel according to the following formula (Eren et al. [2008]). Lysis%=[OD414-OD414blank]/[OD414totallysis-OD414blank]×100

MRSA biofilm [4] = assay: Antibiofilm activity, CoMIC method; assay type: cell-based, Methicillin-resistant S. aureus; conditions: peptides added just before the start of biofilm formation
Protocol: Ninety microliters of 0.5 McF Methicillin-resistant S. aureus (MRSA) (1.5×10^8 CFU/mL) in Congo Red Broth media with fructose was transferred into wells. Plates were incubated at 37°C. At the time just before the start of biofilm formation as optimized in Fig. 4, 10 µL of 1:2 serial dilutions of the antimicrobial peptides (2560–0 µg/mL) was added in wells. So that, final concentrations of peptides were 256–0 µg/mL. Incubation of media continued overnight. Then, wells were evaluated according to their black color formation.

VRE = assay type: cell-based, Vancomycin-resistant Enterococcus
Text: as §3

MRSA = assay type: cell-based, Methicillin-Resistant S. aureus
Text: as §3

[5] = S. aureus 29213, added at the very beginning of the biofilm culture
[6] = S. aureus 29213, added just before the start of biofilm formation
[7] = S. aureus 29213, added in the very beginning
[8] = S. aureus 29213, added just before biofilm formation

Proteinase K, sequence (P06873 106-384): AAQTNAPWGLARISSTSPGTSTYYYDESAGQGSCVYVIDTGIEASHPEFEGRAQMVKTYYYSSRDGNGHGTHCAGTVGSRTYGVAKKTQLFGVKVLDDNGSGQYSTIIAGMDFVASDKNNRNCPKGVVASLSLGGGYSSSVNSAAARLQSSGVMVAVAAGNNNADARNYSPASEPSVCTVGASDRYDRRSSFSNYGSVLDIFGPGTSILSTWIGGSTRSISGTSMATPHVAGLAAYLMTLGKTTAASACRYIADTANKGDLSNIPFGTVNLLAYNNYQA

Row | Compound | MIC for biofilms (S. aureus 29213 biofilm [1]; [5]) | MIC for biofilms (S. aureus 29213 biofilm [1]; [6]) | MIC for biofilms (S. aureus 29213 biofilm [2]; [7]) | MIC for biofilms (S. aureus 29213 biofilm [2]; [8]) | resistance to proteases (HPLC after proteinase K treatment) (Proteinase K) | IC50 (in vitro; human) | IC50 (in vitro; mouse) | IC50 value as times the MIC value (HaCaT cell line) | therapeutic index for cytotoxic activities (HaCaT cell line) | therapeutic index for cytotoxic activities (3T3 cell line) | Peptide concentration inhibiting the biofilm at 100%, Crystal Violet (MRSA biofilm [3]) | MIC (E. coli NTCC13846) | MIC (E. coli ATCC25922) | MIC (S. aureus ATCC29213) | MIC (S. aureus ATCC25923) | MIC (E. coli ER2566) | therapeutic index for hemolytic activities (erythrocytes) | Peptide concentration inhibiting the biofilm at 100%, CoMIC (MRSA biofilm [4]) | MIC (VRE) | MIC (MRSA) | other results
1 | O=C(O)c1cn(C2CC2)c2cc(N3CCNCC3)c(F)cc2c1=O [ciprofloxacin] | 50 µg/mL | > 200 µg/mL | 12.5 µg/mL | > 200 µg/mL |  |  |  |  |  |  |  |  |  |  |  |  |  |  |  |  | 
2 | CC(C)C[C@H](NC(=O)[C@H](CC(C)C)NC(=O)[C@H](CC(C)C)NC(=O)[C@H](CCCNC(=N)N)NC(=O)[C@H](CC(C)C)NC(=O)[C@H](CC(C)C)NC(=O)[C@H](CCCNC(=N)N)NC(=O)[C@H](CCCNC(=N)N)NC(=O)[C@H](CC(C)C)NC(=O)[C@H](CC(C)C)NC(=O)[C@H](CCCNC(=N)N)NC(=O)[C@H](CC(C)C)NC(=O)[C@H](CC(C)C)NC(=O)[C@H](CC(C)C)NC(=O)[C@@H](N)CCCNC(=N)N)C(=O)N[C@@H](CCCNC(=N)N)C(N)=O [NET2, RLLLRLLRRLLRLLLR-NH2] (H-RLLLRLLRRLLRLLLR-NH2; N-terminus assumed) |  |  |  |  | completely degraded | > 128 µg/mL | > 128 µg/mL | 2-4 times | 2 | 2 | 128 µg/mL | 64 µg/mL (≈ 30.7 µM) | 64 µg/mL (≈ 30.7 µM) | 64 µg/mL (≈ 30.7 µM) | 32 µg/mL (≈ 15.3 µM) | 4 µg/mL (≈ 1.92 µM) | 1 | >256 µg/mL | 2 µg/mL (≈ 0.959 µM) | 64 µg/mL (≈ 30.7 µM) | concentration that provided over 50% biofilm inhibition (MRSA biofilm [3]; CV method): 64 µg/mL; HC50 value as times the MIC value (erythrocytes): 2–8 times
3 | CC(C)C[C@@H](NC(=O)[C@H](N)CCCNC(=N)N)C(=O)N[C@H](CC(C)C)C(=O)N[C@H](CC(C)C)C(=O)N[C@H](CCCNC(=N)N)C(=O)N[C@H](CC(C)C)C(=O)N[C@H](CC(C)C)C(=O)N[C@H](CCCNC(=N)N)C(=O)N[C@H](CCCNC(=N)N)C(=O)N[C@H](CC(C)C)C(=O)N[C@H](CC(C)C)C(=O)N[C@H](CCCNC(=N)N)C(=O)N[C@H](CC(C)C)C(=O)N[C@H](CC(C)C)C(=O)N[C@H](CC(C)C)C(=O)N[C@H](CCCNC(=N)N)C(N)=O [NET4, RLLLRLLRRLLRLLLR-NH2] (H-[dR][dL][dL][dL][dR][dL][dL][dR][dR][dL][dL][dR][dL][dL][dL][dR]-NH2; N-terminus assumed) |  |  |  |  | not fractionated by proteases | > 128 µg/mL | > 128 µg/mL | 4-16 times | 8 | 8 | 128 µg/mL | 32 µg/mL (≈ 15.3 µM) | 8 µg/mL (≈ 3.84 µM) | 16 µg/mL (≈ 7.67 µM) | 16 µg/mL (≈ 7.67 µM) | 1 µg/mL (≈ 0.479 µM) | 4 | >256 µg/mL | 2 µg/mL (≈ 0.959 µM) | 16 µg/mL (≈ 7.67 µM) | cytotoxicity at 64 µg/ml (in vitro; human): > 50%; concentration that could be enough to inhibit the biofilms completely (MRSA biofilm [3]; CV method): 64 µg/mL
4 | CC(C)C[C@H](NC(=O)[C@H](N)CCCNC(=N)N)C(=O)N[C@@H](CC(C)C)C(=O)N[C@@H](CC(C)C)C(=O)N[C@H](CCCNC(=N)N)C(=O)N[C@@H](CC(C)C)C(=O)N[C@@H](CC(C)C)C(=O)N[C@H](CCCNC(=N)N)C(=O)N[C@H](CCCNC(=N)N)C(=O)N[C@@H](CC(C)C)C(=O)N[C@@H](CC(C)C)C(=O)N[C@H](CCCNC(=N)N)C(=O)N[C@@H](CC(C)C)C(=O)N[C@@H](CC(C)C)C(=O)N[C@@H](CC(C)C)C(=O)N[C@H](CCCNC(=N)N)C(N)=O [NET3, RLLLRLLRRLLRLLLR-NH2] (H-[dR]LLL[dR]LL[dR][dR]LL[dR]LLL[dR]-NH2; N-terminus assumed) |  |  |  |  | not fractionated by proteases | 64 µg/mL (≈ 30.7 µM) | 32 µg/mL (≈ 15.3 µM) | 16-32 times | 32 | 16 | 4 µg/mL | 2 µg/mL (≈ 0.959 µM) | 4 µg/mL (≈ 1.92 µM) | 2 µg/mL (≈ 0.959 µM) | 2 µg/mL (≈ 0.959 µM) | 0.5 µg/mL (≈ 0.24 µM) | 32 | 128 µg/mL | 0.5 µg/mL (≈ 0.24 µM) | 2 µg/mL (≈ 0.959 µM) | concentration that could be enough to inhibit the biofilms completely (MRSA biofilm [3]; CV method): less than 1 µg/mL; HC50 value as times the MIC value (erythrocytes): 16–32 times
5 | [Na+].[O-]Cl [sodium hypochlorite] | 1.25% | 1.25% | 1.25% | 5% |  |  |  |  |  |  |  |  |  |  |  |  |  |  |  |  | 
